According to PubChem BioAssay (NCI):
Several values for one entry are separate records, joined by “and”; a condition that tells them apart may be missing. Equal entries are not always repeated.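 Interpolation was linear, between the two tested concentrations surrounding the appropriate level; five concentrations were tested over 48 hours in 96-well plates. Abbreviation: GI50, concentration required for 50% inhibition of growth. TGI marks complete inhibition of growth.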

Columns and labels:
Test in all cases: DTP human tumour cell line panel, 48 h
ACHN renal = test system: ACHN renal
CAKI-1 renal = test system: CAKI-1 renal
HCT-15 colon = test system: HCT-15 colon
MALME-3M melanoma = test system: MALME-3M melanoma
MCF7 breast = test system: MCF7 breast
NCI/ADR-RES ovarian = test system: NCI/ADR-RES ovarian
PC-3 prostate = test system: PC-3 prostate
SK-MEL-2 melanoma = test system: SK-MEL-2 melanoma
SN12C renal = test system: SN12C renal
SR leukemia = test system: SR leukemia

Row | Compound | TGI (ACHN renal) [µM] | TGI (CAKI-1 renal) [µM] | TGI (HCT-15 colon) [µM] | TGI (MALME-3M melanoma) [µM] | TGI (MCF7 breast) [µM] | TGI (NCI/ADR-RES ovarian) [µM] | TGI (PC-3 prostate) [µM] | TGI (SK-MEL-2 melanoma) [µM] | TGI (SN12C renal) [µM] | TGI (SR leukemia) [µM] | GI50 (HCT-15 colon) | GI50 (SK-MEL-2 melanoma) | GI50 (ACHN renal) [µM] | GI50 (CAKI-1 renal) [µM] | GI50 (MALME-3M melanoma) [µM] | GI50 (MCF7 breast) [µM] | GI50 (NCI/ADR-RES ovarian) [µM] | GI50 (PC-3 prostate) [µM] | GI50 (SN12C renal) [µM] | GI50 (SR leukemia) [µM]
1 | O=c1cc(N2CCOCC2)n2c(ccc3ccccc32)n1 | > 100 | > 100 | > 100 | > 100 | > 100 | > 100 | > 100 | > 100 | > 100 | > 100 |  |  |  |  |  |  |  |  |  | 
2 | O=[N+]([O-])c1ccc(N2N=C(c3c(O)ccc4ccccc34)CC2c2ccc(Cl)cc2)c([N+](=O)[O-])c1 (configuration not stated) | > 100 | 93.2 | > 100 | 63 | > 100 | 55.6 | 66.4 | 44.2 | > 100 | 31.4 |  |  |  |  |  |  |  |  |  | 
3 | Cn1c2ccc(Cl)cc2c2ccc3c(c21)C(=O)C=CC3=O | > 10 | > 10 | > 10 | > 10 | > 10 | > 10 | > 10 | > 10 | > 10 | > 10 |  |  |  |  |  |  |  |  |  | 
4 | S=C1C(=Nc2ccccc2)N(c2ccccc2)/C(=N\c2cccc[n+]2Cc2ccccc2)N1c1ccccc1 | 45 | 55.7 | 45.7 | 28.2 | 42.8 | > 100 | 29.9 | 55.8 | 35.4 | 79.7 |  |  |  |  |  |  |  |  |  | 
5 | COC(=O)/C=C\n1nc(Br)c(=O)[nH]c1=O | > 100 | > 100 | > 100 | > 100 | > 100 | > 100 | > 100 | > 100 | > 100 | > 100 |  |  |  |  |  |  |  |  |  | 
6 | CSc1nnc(SCc2nn3c(=O)cc(C)nc3s2)s1 | > 100 | > 100 | > 100 | > 100 | > 100 | > 100 | > 100 | > 100 | > 100 | > 100 |  |  |  |  |  |  |  |  |  | 
7 | Cc1nc2ccc(Br)cc2c(=O)n1-c1ccc(N)cc1 | > 100 | > 100 | > 100 | > 100 | > 100 | > 100 | > 100 | > 100 | > 100 | > 100 |  |  |  |  |  |  |  |  |  | 
8 | [N-]=[N+]=Nc1nc2ccccc2c(N=[N+]=[N-])c1Cl | > 100 | > 100 | > 100 | > 100 | > 100 | > 100 | > 100 | > 100 | > 100 | > 100 |  |  |  |  |  |  |  |  |  | 
9 | CC(=O)OCC1OC(SC2=NC(=O)CS2)C(OC(C)=O)C(OC(C)=O)C1OC(C)=O (configuration not stated) | > 100 | > 100 | > 100 | > 100 | > 100 | > 100 | > 100 | > 100 | > 100 | > 100 | 26.3 µM and 53 µM | > 100 µM and 27.1 µM |  |  |  |  |  |  |  | 
10 | O=c1[nH]n(CCc2ccccc2CCl)c2ccc([N+](=O)[O-])cc12 | > 100 | > 100 | > 100 | > 100 | > 100 | > 100 | > 100 | > 100 | > 100 | > 100 |  |  |  |  |  |  |  |  |  | 
11 | COc1cccc(NC(=O)CC(=O)n2nc(-c3ccccc3)c(N=Nc3ccc(Cl)cc3)c2-c2ccccc2)c1 | > 100 | > 100 | > 100 | 78.8 | 45.3 | 52.6 | > 100 | 89.1 | > 100 | > 73.2 |  |  |  |  |  |  |  |  |  | 
12 | CCCC1=C(OC)C(=O)c2c(C)cc(Cl)nc2C1=O | 17.4 | 21.7 | 11.2 | 9.71 | 6.17 | 14.2 | 26.4 | 24.4 | 9.62 | 5.11 |  |  |  |  |  |  |  |  |  | 
13 | NC1CCCCC1NCCNC1CCCCC1N (configuration not stated) | > 100 | > 100 | > 100 | > 100 | > 100 | > 100 | > 100 | > 100 | > 100 | > 100 |  |  |  |  |  |  |  |  |  | 
14 | Cc1cc2c(c(C(=O)NCC(=O)O)c1)Oc1c(cc(C)cc1C(=O)NCC(=O)O)S2 | > 100 | > 100 | > 100 | > 100 | > 100 | > 100 | > 100 | > 100 | > 100 | > 100 |  |  |  |  |  |  |  |  |  | 
15 | Cc1ccc(S(=O)(=O)OCCC2CN(C(=O)OCc3ccccc3)C(C)(C)O2)cc1 (configuration not stated) | 64.9 | > 100 | 32.5 | 43.3 | 33.7 | 15.7 | 50 | 94.5 | > 100 | > 100 |  |  |  |  |  |  |  |  |  | 
16 | N/N=C(/N)SCCCCCCCCCCS/C(N)=N/N | 67.4 | > 100 | 27.5 | 49.4 | 64.4 | 58.2 | > 100 | 52.8 | > 100 | 27.4 |  |  |  |  |  |  |  |  |  | 
17 | C=C(CN(CC)CC)C1(c2ccccc2)CC2(CCCC2)C(=O)O1 (configuration not stated) | > 100 | > 100 | > 100 | > 100 | > 100 | 84.4 | > 100 | > 100 | > 100 | > 100 |  |  |  |  |  |  |  |  |  | 
18 | Cc1cc2nc3ccccc3n2c2ccccc12 | > 10 | > 10 | > 10 | > 10 | > 10 | > 10 | > 10 | > 10 | > 10 | > 10 |  |  |  |  |  |  |  |  |  | 
19 | CC(OP(=O)(O)O)C(N)C(=O)O (configuration not stated) | > 100 | > 100 | > 100 | > 100 | > 100 | > 100 | > 100 | > 100 | > 100 | > 100 |  |  |  |  |  |  |  |  |  | 
20 | CC(=O)/C=C/c1ccccc1 | > 100 | > 100 | > 100 | > 100 | > 100 | > 100 | > 100 | > 100 | > 100 | 53 |  |  |  |  |  |  |  |  |  | 
21 | O=C1CCCCC/C1=C\c1cccc(F)c1 | > 100 | > 100 | > 100 | > 100 | > 100 | > 100 | > 100 | > 100 | > 100 | 61.2 |  |  |  |  |  |  |  |  |  | 
22 | O=C1C=CC(=O)c2c(O)c(N3CCOCC3)c(Cl)c(O)c21 | 0.739 | 1.27 | 0.403 | 0.442 | 0.486 | 1.43 | 1.56 | 0.765 | 0.425 | > 7.34 |  |  |  |  |  |  |  |  |  | 
23 | Nc1ccc2c(=O)cc(-c3ccc(Br)s3)[nH]c2n1 | > 100 | > 100 | > 100 | > 100 | > 100 | > 26.9 | > 100 | > 100 | > 100 | > 51.1 |  |  |  |  |  |  |  |  |  | 
24 | O=c1cc(-c2ccccc2)oc2c1ccc1[nH]c3ccccc3c(=O)c12 | > 100 | > 100 | > 100 | > 100 | > 100 | > 100 | > 100 | > 100 | > 100 | > 100 |  |  |  |  |  |  |  |  |  | 
25 | O=C(Nc1ccc(-n2cc(-c3ccncc3)c(-c3ccc(O)c(Cl)c3)n2)cc1)c1ccc(Cl)c(C(F)(F)F)c1 | 13.3 | 14.7 | 4.39 | 6.71 | > 50 | > 50 | > 50 | 3.32 | > 50 | 13 | 1.21 µM | 1.22 µM | 1.8 | 2.05 | 1.45 | 2.4 | 2.57 | 1.37 | 2.57 | 1.68
26 | O=C1Nc2cccc(Cl)c2/C1=C\c1c(-c2ccccc2)nc2n1CCS2 | 32.3 | 73.8 | 83.1 | 46.3 | 39.1 | > 100 | 41.8 | 46.2 | 31.7 | 53.2 |  |  |  |  |  |  |  |  |  | 
27 | COC(=O)C1C(=O)CC(C)(O)C(C(=O)OC)C1c1ccc(N(C)C)cc1 (configuration not stated) | > 100 | > 100 | > 100 | > 100 | > 100 | > 100 | > 100 | > 100 | > 100 | > 100 |  |  |  |  |  |  |  |  |  | 
